Data taken from patent publication US8329644B2, “Lantibiotic-based compounds having antimicrobial activity” (Novacta Biosystems Limited, priority 2007, dated 2012).
In brackets after ≈: the same amount, converted by molar mass.

Assays:
S. salivarius = assay: MIC susceptibility testing, S. salivarius; assay type: cell-based; conditions: S. salivarius GRL05064; Viridans streptococci; Table 3
Method: (§1) Susceptibility testing for all aerobic organisms with the exception of Streptococcus pneumoniae was performed by two-fold serial antibiotic dilutions in Mueller-Hinton Broth supplemented with 50 μg/ml Ca^2+ unless otherwise noted. Susceptibility testing for S. pneumoniae was performed by two-fold serial antibiotic dilutions in Brain-Heart-Infusion Broth supplemented with 50 μg/ml Ca^2+ unless otherwise noted. Actively growing broth cultures were diluted to contain […] by adjusting to an OD600 of 0.2-0.3. They were then diluted a further 1:100 in fresh sterile broth. The assays were performed in duplicate in sterile 96-well microtitre plates in a total volume of 200 μl (160 μl broth, 20 μl antimicrobial agent, 20 μl inoculum) in a concentration range from 64 μg/ml to 0.06 μg/ml. […] Clinical isolates of Clostridium difficile were tested in Wilkins-Chalgren Anaerobe Agar under anaerobic conditions. In all cases, vancomycin was used as a reference antibiotic

[1] = system: Bifidobacterium adolescentis; assay: MIC against intestinal flora organisms, Bifidobacterium adolescentis; assay type: cell-based; conditions: Bifidobacterium adolescentis NCTC 11814; Table 5
Bifidobacterium longum = assay: MIC against intestinal flora organisms, Bifidobacterium longum; assay type: cell-based; conditions: Bifidobacterium longum NCTC 11818; Table 5
S. pneumoniae = assay: MIC susceptibility testing, S. pneumoniae (Brain-Heart-Infusion Broth); assay type: cell-based, Streptococcus pneumoniae; conditions: S. pneumoniae R6; Table 2
Method: as §1

S. mitis = assay: MIC susceptibility testing, S. mitis; assay type: cell-based; conditions: Viridans streptococci, Table 3
Method: as §1

E. faecalis = assay: MIC susceptibility testing, E. faecalis; assay type: cell-based
Method: as §1

S. oralis = assay: MIC susceptibility testing, S. oralis; assay type: cell-based; conditions: S. oralis 7862912.1; Viridans streptococci; Table 3
Method: as §1

[2] = Stability in simulated gastric fluid (SGF); assay type: in vitro ADME; conditions: 37° C., analytical HPLC
Method: (§2) Nisin, mersacidin, compound I and compound III were tested for their susceptibility towards enzymatic digestion in the stomach. Nisin, mersacidin and compound III were tested for their susceptibility towards enzymatic digestion in the intestine. The SGF and SIF were based on the standard USP solutions for simulated gastric and simulated intestinal fluids and their activity confirmed against Bovine Serum Albumin (Hilger et al, Clin. Exp. Immunol. 2001, 123, 387-94). The compounds were incubated in SGF or SIF at 37° C. and their concentrations quantified by analytical HPLC (UV detection at 210 nm). The potential degradation of each compound was also monitored qualitatively by measuring in vitro antibacterial activity against Micrococcus luteus.

S. epidermidis = assay: MIC susceptibility testing, S. epidermidis; assay type: cell-based, Staphylococcus epidermidis
Method: as §1

S. acidominimus = assay: MIC susceptibility testing, S. acidominimus; assay type: cell-based; conditions: S. acidominimus 7862865; Viridans streptococci; Table 3
Method: as §1

S. aureus = assay: MIC susceptibility testing, S. aureus; assay type: cell-based, Staphyloccus aureus
Method: as §1

S. constellatus = assay: MIC susceptibility testing, S. constellatus; assay type: cell-based; conditions: S. constellatus GRL05065; Viridans streptococci; Table 3
Method: as §1

[3] = Stability in simulated intestinal fluid (SIF); assay type: in vitro ADME; conditions: 37° C., analytical HPLC
Method: as §2
The rapid degradation of nisin in this medium supports the observation that the clinical utility of nisin for the treatment of colonic infections is very limited unless the compound can be protected from degradative enzymes by means of careful formulation.

E. coli = assay: MIC against intestinal flora organisms, E. coli; assay type: cell-based
Method: as §1

[4] = system: Bacteroides thetaiotaomicron; assay: MIC against intestinal flora organisms, Bacteroides thetaiotaomicron; assay type: cell-based; conditions: Bacteroides thetaiotaomicron NCTC 10582; Table 5
M. luteus = assay: MIC susceptibility testing, M. luteus; assay type: cell-based; conditions: M. luteus 4698; Table 2
Method: as §1

CCC(C)[C@@H]1NC(=O)[C@H](C(C)C)NC(=O)[C@H]2NC(=O)CNC(=O)[C@@H]3CS[C@@H](C)[C@@H](NC(=O)[C@H]4CSC[C@H](N)C(=O)N[C@@H](CO)C(=O)NCC(=O)N[C@@H](Cc5c[nH]c6ccccc56)C(=O)N[C@@H](C(C)C)C(=O)N4)C(=O)N[C@@H](CC(C)C)C(=O)N[C@@H](C(=O)N[C@@H](C(C)CC)C(=O)N[C@@H](CCC(=O)O)C(=O)N3)[C@H](C)SC[C@H](NC1=O)C(=O)N[C@@H](C)C(=O)N[C@H](C(=O)NCCO)C[S+]([O-])[C@H]2C (stereo partly drawn) [Compound III, Actagardine N-[2-ethanolamine]monocarboxamide]
MIC (S. salivarius): 1 µg/mL (≈ 0.517 µM)
Minimal Inhibitory Concentration (MIC) [1]: 32 µg/mL
Minimal Inhibitory Concentration (MIC) (Bifidobacterium longum): 32 µg/mL
MIC (S. pneumoniae): 4 µg/mL (≈ 2.07 µM)
MIC (S. mitis; S. mitis 1 7722543): 4 µg/mL (≈ 2.07 µM)
MIC (S. mitis; S. mitis 1 7863547): 4 µg/mL (≈ 2.07 µM)
MIC (S. mitis; S. mitis GRL05062): 8 µg/mL (≈ 4.14 µM)
MIC (S. mitis; S. mitis GRL05067): 16 µg/mL (≈ 8.28 µM)
MIC (E. faecalis; E. faecalis 29212, Table 2): 4 µg/mL (≈ 2.07 µM)
MIC (E. faecalis; E. faecalis 7754422, Vancomycin sensitive enterococci, Table 3): 8 µg/mL (≈ 4.14 µM)
MIC (E. faecalis; E. faecalis GRL05023, Vancomycin sensitive enterococci, Table 3): 8 µg/mL (≈ 4.14 µM)
MIC (E. faecalis; E. faecalis GRL05024, Vancomycin sensitive enterococci, Table 3): 8 µg/mL (≈ 4.14 µM)
MIC (E. faecalis; E. faecalis GRL05026, Vancomycin sensitive enterococci, Table 3): 8 µg/mL (≈ 4.14 µM)
MIC (E. faecalis; E. faecalis GRL05027, Vancomycin sensitive enterococci, Table 3): 8 µg/mL (≈ 4.14 µM)
MIC (E. faecalis; E. faecalis GRL05029, Vancomycin sensitive enterococci, Table 3): 4 µg/mL (≈ 2.07 µM)
MIC (E. faecalis; E. faecalis GRL05030, Vancomycin sensitive enterococci, Table 3): 4 µg/mL (≈ 2.07 µM)
MIC (S. oralis): 8 µg/mL (≈ 4.14 µM)
degradation in Simulated Gastric Fluid [2]: did not show appreciable degradation
MIC (S. epidermidis; S. epidermidis 7753921, Methicillin resistant, Table 3): >32 µg/mL
MIC (S. epidermidis; S. epidermidis 7755298, Methicillin resistant, Table 3): >32 µg/mL
MIC (S. epidermidis; S. epidermidis 7865688, Methicillin resistant, Table 3): >32 µg/mL
MIC (S. epidermidis; S. epidermidis GRL05001, Methicillin sensitive, Table 3): >32 µg/mL
MIC (S. epidermidis; S. epidermidis GRL05002, Methicillin sensitive, Table 3): >32 µg/mL
MIC (S. epidermidis; S. epidermidis GRL05003, Methicillin sensitive, Table 3): 32 µg/mL (≈ 16.6 µM)
MIC (S. epidermidis; S. epidermidis GRL05004, Methicillin sensitive, Table 3): 32 µg/mL (≈ 16.6 µM)
MIC (S. epidermidis; S. epidermidis GRL05005, Methicillin sensitive, Table 3): >32 µg/mL
MIC (S. epidermidis; S. epidermidis GRL05006, Methicillin sensitive, Table 3): >32 µg/mL
MIC (S. epidermidis; S. epidermidis GRL05007, Methicillin sensitive, Table 3): >32 µg/mL
MIC (S. epidermidis; S. epidermidis GRL05008, Methicillin sensitive, Table 3): >32 µg/mL
MIC (S. epidermidis; S. epidermidis GRL05009, Methicillin sensitive, Table 3): >32 µg/mL
MIC (S. epidermidis; S. epidermidis GRL05010, Methicillin sensitive, Table 3): >32 µg/mL
MIC (S. epidermidis; S. epidermidis GRL05011, Methicillin resistant, Table 3): >32 µg/mL
MIC (S. epidermidis; S. epidermidis GRL05013, Methicillin resistant, Table 3): >32 µg/mL
MIC (S. epidermidis; S. epidermidis GRL05014, Methicillin resistant, Table 3): >32 µg/mL
MIC (S. epidermidis; S. epidermidis GRL05015, Methicillin resistant, Table 3): >32 µg/mL
MIC (S. epidermidis; S. epidermidis GRL05017, Methicillin resistant, Table 3): >32 µg/mL
MIC (S. epidermidis; S. epidermidis GRL05019, Methicillin resistant, Table 3): >32 µg/mL
MIC (S. epidermidis; S. epidermidis GRL05020, Methicillin resistant, Table 3): 32 µg/mL (≈ 16.6 µM)
MIC (S. epidermidis; S. epidermis 11047, Table 2): 32 µg/mL (≈ 16.6 µM)
MIC (S. acidominimus): 4 µg/mL (≈ 2.07 µM)
MIC (S. aureus; S. aureus 2, Vancomycin intermediate, Table 3): 32 µg/mL (≈ 16.6 µM)
MIC (S. aureus; S. aureus 26, Vancomycin intermediate, Table 3): 32 µg/mL (≈ 16.6 µM)
MIC (S. aureus; S. aureus 12232, Methicillin resistant, Table 3): 8 µg/mL (≈ 4.14 µM)
MIC (S. aureus; S. aureus G15, Methicillin sensitive, Table 3): >32 µg/mL
MIC (S. aureus; S. aureus G20, Methicillin sensitive, Table 3): 32 µg/mL (≈ 16.6 µM)
MIC (S. aureus; S. aureus G22, Methicillin sensitive, Table 3): 32 µg/mL (≈ 16.6 µM)
MIC (S. aureus; S. aureus G23, Methicillin sensitive, Table 3): 32 µg/mL (≈ 16.6 µM)
MIC (S. aureus; S. aureus G28, Methicillin sensitive, Table 3): 16 µg/mL (≈ 8.28 µM)
MIC (S. aureus; S. aureus G30, Methicillin sensitive, Table 3): 32 µg/mL (≈ 16.6 µM)
MIC (S. aureus; S. aureus G31, Methicillin sensitive, Table 3): >32 µg/mL
MIC (S. aureus; S. aureus G32, Methicillin sensitive, Table 3): 32 µg/mL (≈ 16.6 µM)
MIC (S. aureus; S. aureus G33, Methicillin sensitive, Table 3): 32 µg/mL (≈ 16.6 µM)
MIC (S. aureus; S. aureus G35, Methicillin sensitive, Table 3): >32 µg/mL
MIC (S. aureus; S. aureus MI, Vancomycin intermediate, Table 3): 32 µg/mL (≈ 16.6 µM)
MIC (S. aureus; S. aureus Mu3, Vancomycin intermediate, Table 3): 32 µg/mL (≈ 16.6 µM)
MIC (S. aureus; S. aureus Mu50, Vancomycin intermediate, Table 3): 32 µg/mL (≈ 16.6 µM)
MIC (S. aureus; S. aureus NJ, Vancomycin intermediate, Table 3): >32 µg/mL
MIC (S. aureus; S. aureus R33, Table 2): 16 µg/mL (≈ 8.28 µM)
MIC (S. aureus; S. aureus R34, Methicillin resistant, Table 3): 8 µg/mL (≈ 4.14 µM)
MIC (S. aureus; S. aureus R36, Methicillin resistant, Table 3): 16 µg/mL (≈ 8.28 µM)
MIC (S. aureus; S. aureus R39, Methicillin resistant, Table 3): >32 µg/mL
MIC (S. aureus; S. aureus R40, Methicillin resistant, Table 3): 32 µg/mL (≈ 16.6 µM)
MIC (S. aureus; S. aureus SH1000, Methicillin sensitive, Table 3): 16 µg/mL (≈ 8.28 µM)
MIC (S. aureus; S. aureus SH1000, Table 2): 8 µg/mL (≈ 4.14 µM)
MIC (S. aureus; S. aureus V99, Vancomycin intermediate, Table 3): 16 µg/mL (≈ 8.28 µM)
MIC (S. aureus; S. aureus W71, Methicillin resistant, Table 3): 32 µg/mL (≈ 16.6 µM)
MIC (S. aureus; S. aureus W74, Methicillin resistant, Table 3): 32 µg/mL (≈ 16.6 µM)
MIC (S. aureus; S. aureus W96, Methicillin resistant, Table 3): >32 µg/mL
MIC (S. aureus; S. aureus W97, Methicillin resistant, Table 3): >32 µg/mL
MIC (S. aureus; S. aureus W98, Methicillin resistant, Table 3): 32 µg/mL (≈ 16.6 µM)
MIC (S. aureus; S. aureus W99, Methicillin resistant, Table 3): 32 µg/mL (≈ 16.6 µM)
MIC (S. constellatus): >32 µg/mL
stability in SIF [3]: essentially stable
Minimal Inhibitory Concentration (MIC) (E. coli; E. coli ATCC 25922, Table 5): >64 µg/mL
Minimal Inhibitory Concentration (MIC) (E. coli; E. coli DC2 (membrane more susceptible), Table 5, first line): >64 µg/mL
Minimal Inhibitory Concentration (MIC) (E. coli; E. coli DC2 (membrane more susceptible), Table 5, second line): >64 µg/mL
Minimal Inhibitory Concentration (MIC) [4]: >64 µg/mL
MIC (M. luteus): 1 µg/mL (≈ 0.517 µM)
